Results: EP0103552B1, “Novel derivatives of guanine” (priority 1982, dated 1984)

How the values were obtained:
herpes simplex type 1 = test: plaque reduction assay, inhibition of virus multiplication in cell cultures; format: cell-based; settings: herpes simplex type 1 plaque on Vero cell mono-layers
Description: The inhibition of herpesvirus by VIS 590 and VSA 687 has been measured as plaque reduction according to the following procedure. The plaque reduction assay for herpes simplex type 1 was performed on Vero (Green Monkey Kidney) cells as described by Ejercito et al., J. Gen. Virol. 2 (1968) 357. Monolayers on 5 cm petri dishes were used and after virus adsorption the compounds to be tested were added to-the medium.

Vero cells = test: cellular toxicity, reduction in cell growth; format: cell-based, Green Monkey; settings: at 100 µM
Description: (§1) The method used has been described by Stenberg (Biochemical Pharmacology, Vol. 30 (1980), 1005-1008). […] However, at this concentration, herpes virus multiplication was inhibited to more than 90% (see Table 1). Table 2. Cellular toxicity of VIS 590 expressed as percent reduction in cell growth after 48 h of incubation.

[1] = cellular toxicity, reduction in cell growth; format: cell-based, Green Monkey; settings: monkey, vero cells; Conc. 100 µM; after 48 h of incubation; read-out: Percent reduction in growth of Vero cells, determined as cell number
Description: as §1

Structure (SMILES): Nc1nc2c(ncn2CC(=O)C(O)CO)c(=O)[nH]1 (stereo not shown) [VSA 687, 9-(2-oxo-3,4-dihydroxybutyl)guanine]
- Inhibition % (herpes simplex type 1; Conc. 35 μ): >90%

Structure (SMILES): Nc1nc2c(ncn2CC(=O)CCO)c(=O)[nH]1 [VIS 590, 9-(2-oxo-4-hydroxybutyl)guanine]
- Inhibition % (herpes simplex type 1; Conc. 10 μ): 35%
- effect on cell growth (in words) (Vero cells): did not affect cell growth
- inhibition at 48 h, 100 µM [1]: 0%
